Test results as given in the supplement of paper PMC12463676, “Small-molecule dissolution of stress granules by redox modulation benefits ALS models” (Nature Chemical Biology, 2025).

These targets were tested with O=[As]([O-])(O)O.[K+] [potassium arsenate] (assay: thermal stability z-score vs DMSO; higher = more thermally stabilized by treatment). Settings: HeLa; arsenate concentration 1 mM.
Procedure: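 Cellular thermal proteome profiling in HeLa cells treated with 1 mM arsenate for 1 h (DMSO pretreatment), heated to ten temperatures (37-66.3 °C). Soluble protein was quantified by TMT mass spectrometry relative to DMSO controls; the thermal stability score was transformed to a z-score; mean of n = 3 experiments.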
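Further: each temperature applied for 3 min, abundance score taken as mean log2 fold change at the two lowest temperatures, z-score obtained by mean subtraction and division by SD.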

Chain of UniProt Q6QNY1 (Q6QNY1 whole entry): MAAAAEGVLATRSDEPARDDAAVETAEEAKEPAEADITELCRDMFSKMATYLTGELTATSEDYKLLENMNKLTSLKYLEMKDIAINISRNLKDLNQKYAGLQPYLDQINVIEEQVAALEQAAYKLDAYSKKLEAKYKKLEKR
Chain of UniProt Q8WWM7 (Q8WWM7 whole entry): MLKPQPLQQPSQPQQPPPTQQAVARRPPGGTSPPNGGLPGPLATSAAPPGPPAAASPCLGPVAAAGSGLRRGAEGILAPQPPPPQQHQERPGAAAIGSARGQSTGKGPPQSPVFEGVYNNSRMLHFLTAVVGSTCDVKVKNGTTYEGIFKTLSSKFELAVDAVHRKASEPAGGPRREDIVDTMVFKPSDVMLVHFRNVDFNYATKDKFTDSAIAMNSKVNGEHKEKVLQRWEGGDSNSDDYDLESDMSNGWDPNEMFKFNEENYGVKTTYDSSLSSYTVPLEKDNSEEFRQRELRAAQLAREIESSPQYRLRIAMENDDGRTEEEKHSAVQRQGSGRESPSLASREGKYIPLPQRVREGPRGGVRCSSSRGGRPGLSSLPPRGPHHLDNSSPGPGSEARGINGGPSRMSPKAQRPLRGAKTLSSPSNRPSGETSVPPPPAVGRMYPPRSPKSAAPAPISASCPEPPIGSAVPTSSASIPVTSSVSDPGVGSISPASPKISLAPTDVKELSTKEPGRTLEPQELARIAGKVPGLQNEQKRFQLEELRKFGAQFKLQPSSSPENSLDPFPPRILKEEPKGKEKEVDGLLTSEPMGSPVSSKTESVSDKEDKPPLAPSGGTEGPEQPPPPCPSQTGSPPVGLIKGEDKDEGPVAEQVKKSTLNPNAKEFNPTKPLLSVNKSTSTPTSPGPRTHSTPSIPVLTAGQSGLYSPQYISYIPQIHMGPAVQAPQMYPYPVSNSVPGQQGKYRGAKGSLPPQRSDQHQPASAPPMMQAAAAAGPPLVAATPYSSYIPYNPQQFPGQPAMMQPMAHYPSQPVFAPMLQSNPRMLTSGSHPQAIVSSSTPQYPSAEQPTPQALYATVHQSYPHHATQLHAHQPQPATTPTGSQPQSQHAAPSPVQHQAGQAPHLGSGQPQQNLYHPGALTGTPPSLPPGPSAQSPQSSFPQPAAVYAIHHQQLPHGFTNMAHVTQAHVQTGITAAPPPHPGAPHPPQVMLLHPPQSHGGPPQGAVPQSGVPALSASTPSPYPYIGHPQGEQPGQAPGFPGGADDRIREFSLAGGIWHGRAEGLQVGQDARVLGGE
Chain of UniProt O00400 (O00400 whole entry): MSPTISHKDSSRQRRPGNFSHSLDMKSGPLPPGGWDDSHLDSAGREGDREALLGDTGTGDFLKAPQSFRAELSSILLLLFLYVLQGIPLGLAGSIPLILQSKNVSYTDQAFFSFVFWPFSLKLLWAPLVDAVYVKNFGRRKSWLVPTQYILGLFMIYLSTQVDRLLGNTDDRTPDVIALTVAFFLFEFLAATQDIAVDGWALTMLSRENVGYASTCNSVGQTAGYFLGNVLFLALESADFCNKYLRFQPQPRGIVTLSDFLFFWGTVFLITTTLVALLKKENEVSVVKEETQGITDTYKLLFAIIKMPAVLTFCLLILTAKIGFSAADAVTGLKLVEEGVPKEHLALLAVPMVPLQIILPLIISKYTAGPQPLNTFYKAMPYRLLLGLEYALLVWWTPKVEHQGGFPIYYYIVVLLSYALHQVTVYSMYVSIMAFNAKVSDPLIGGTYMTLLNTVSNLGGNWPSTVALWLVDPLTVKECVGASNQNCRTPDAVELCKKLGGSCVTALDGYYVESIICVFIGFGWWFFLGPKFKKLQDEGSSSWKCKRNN
Chain of UniProt Q14847 (Q14847 whole entry): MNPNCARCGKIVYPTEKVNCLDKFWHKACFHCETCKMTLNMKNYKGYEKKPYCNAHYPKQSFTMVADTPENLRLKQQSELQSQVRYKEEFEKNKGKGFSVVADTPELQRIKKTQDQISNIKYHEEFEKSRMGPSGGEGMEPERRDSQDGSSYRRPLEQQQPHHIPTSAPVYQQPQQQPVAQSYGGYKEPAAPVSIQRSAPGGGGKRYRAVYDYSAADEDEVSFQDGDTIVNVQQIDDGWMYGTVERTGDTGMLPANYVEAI
Chain of UniProt P24386 (P24386 whole entry): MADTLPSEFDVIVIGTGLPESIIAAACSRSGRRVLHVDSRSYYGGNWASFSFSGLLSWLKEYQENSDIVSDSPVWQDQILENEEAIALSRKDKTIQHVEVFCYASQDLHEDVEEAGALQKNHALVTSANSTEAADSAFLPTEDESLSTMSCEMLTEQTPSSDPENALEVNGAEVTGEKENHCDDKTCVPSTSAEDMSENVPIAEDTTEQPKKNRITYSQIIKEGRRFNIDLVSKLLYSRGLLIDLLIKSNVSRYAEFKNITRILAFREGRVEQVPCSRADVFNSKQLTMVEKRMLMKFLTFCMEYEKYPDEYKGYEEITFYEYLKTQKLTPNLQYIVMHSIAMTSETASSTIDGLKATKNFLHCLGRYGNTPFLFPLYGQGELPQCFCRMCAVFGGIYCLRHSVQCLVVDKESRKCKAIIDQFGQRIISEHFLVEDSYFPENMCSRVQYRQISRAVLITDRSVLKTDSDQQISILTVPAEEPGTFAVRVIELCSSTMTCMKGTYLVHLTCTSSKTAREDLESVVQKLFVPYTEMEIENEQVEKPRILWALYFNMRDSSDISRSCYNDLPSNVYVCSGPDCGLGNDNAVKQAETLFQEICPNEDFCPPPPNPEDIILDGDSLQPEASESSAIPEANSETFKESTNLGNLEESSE
Chain of UniProt P47813 (P47813 whole entry): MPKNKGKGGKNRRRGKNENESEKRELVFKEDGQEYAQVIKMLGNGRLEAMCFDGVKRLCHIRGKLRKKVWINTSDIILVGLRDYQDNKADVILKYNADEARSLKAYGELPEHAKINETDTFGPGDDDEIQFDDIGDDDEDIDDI
Chain of UniProt P24666 (P24666 whole entry): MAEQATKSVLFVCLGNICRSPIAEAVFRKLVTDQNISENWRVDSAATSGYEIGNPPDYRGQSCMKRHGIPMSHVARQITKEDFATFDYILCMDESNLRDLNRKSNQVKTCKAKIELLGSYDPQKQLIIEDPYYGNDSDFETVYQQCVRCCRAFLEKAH

Compared with RPP30 (UniProt P78346), UBASH3B (UniProt Q8TF42) is higher in thermal stability z-score: -1.55 for the first, -0.165 for the second.

First: ATRAID (UniProt Q6UW56)
Chain of UniProt Q6UW56 (Q6UW56 whole entry): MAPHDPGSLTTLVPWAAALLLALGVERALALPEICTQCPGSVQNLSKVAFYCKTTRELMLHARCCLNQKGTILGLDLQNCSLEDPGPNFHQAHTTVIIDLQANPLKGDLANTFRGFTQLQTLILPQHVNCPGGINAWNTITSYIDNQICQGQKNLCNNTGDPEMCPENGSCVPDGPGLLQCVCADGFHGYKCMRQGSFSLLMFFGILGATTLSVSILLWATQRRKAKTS
Second: INF2 (UniProt Q27J81)
The thermal stability z-score of the first is higher: 0.451 for the first, 0.0741 for the second.

First: SUZ12 (UniProt Q15022)
Second: PCYT2 (UniProt Q99447)
The thermal stability z-score of the first is higher: -0.186 for the first, -0.938 for the second.

Compared with ACO2 (UniProt Q99798), FBXO7 (UniProt Q9Y3I1) is higher in thermal stability z-score: -1.08 for the first, -0.35 for the second.

First: RPL22L1 (UniProt Q6P5R6)
Second: PDLIM5 (UniProt Q96HC4)
The thermal stability z-score of the first is higher: -0.919 for the first, -2.23 for the second.

Going from SLC33A1 (UniProt O00400) to UBE2K (UniProt P61086), the thermal stability z-score falls from 0.345 to -0.201.

Compared with FAM195A (UniProt Q9BUT9), DNAJC21 (UniProt Q5F1R6) is higher in thermal stability z-score: -0.164 for the first, 0.00418 for the second.

Going from LASP1 (UniProt Q14847) to EIF1AX (UniProt P47813), the thermal stability z-score rises from -0.178 to 0.464.

Compared with WDR89 (UniProt Q96FK6), BLOC1S2 (UniProt Q6QNY1) is higher in thermal stability z-score: -12.3 for the first, 1.61 for the second.

Compared with WDR45 (UniProt Q9Y484), ACP1 (UniProt P24666) is lower in thermal stability z-score: 0.292 for the first, -1.2 for the second.

First: SPNS1 (UniProt Q9H2V7)
Second: MED23 (UniProt Q9ULK4)
Chain of UniProt Q9ULK4 (Q9ULK4 whole entry): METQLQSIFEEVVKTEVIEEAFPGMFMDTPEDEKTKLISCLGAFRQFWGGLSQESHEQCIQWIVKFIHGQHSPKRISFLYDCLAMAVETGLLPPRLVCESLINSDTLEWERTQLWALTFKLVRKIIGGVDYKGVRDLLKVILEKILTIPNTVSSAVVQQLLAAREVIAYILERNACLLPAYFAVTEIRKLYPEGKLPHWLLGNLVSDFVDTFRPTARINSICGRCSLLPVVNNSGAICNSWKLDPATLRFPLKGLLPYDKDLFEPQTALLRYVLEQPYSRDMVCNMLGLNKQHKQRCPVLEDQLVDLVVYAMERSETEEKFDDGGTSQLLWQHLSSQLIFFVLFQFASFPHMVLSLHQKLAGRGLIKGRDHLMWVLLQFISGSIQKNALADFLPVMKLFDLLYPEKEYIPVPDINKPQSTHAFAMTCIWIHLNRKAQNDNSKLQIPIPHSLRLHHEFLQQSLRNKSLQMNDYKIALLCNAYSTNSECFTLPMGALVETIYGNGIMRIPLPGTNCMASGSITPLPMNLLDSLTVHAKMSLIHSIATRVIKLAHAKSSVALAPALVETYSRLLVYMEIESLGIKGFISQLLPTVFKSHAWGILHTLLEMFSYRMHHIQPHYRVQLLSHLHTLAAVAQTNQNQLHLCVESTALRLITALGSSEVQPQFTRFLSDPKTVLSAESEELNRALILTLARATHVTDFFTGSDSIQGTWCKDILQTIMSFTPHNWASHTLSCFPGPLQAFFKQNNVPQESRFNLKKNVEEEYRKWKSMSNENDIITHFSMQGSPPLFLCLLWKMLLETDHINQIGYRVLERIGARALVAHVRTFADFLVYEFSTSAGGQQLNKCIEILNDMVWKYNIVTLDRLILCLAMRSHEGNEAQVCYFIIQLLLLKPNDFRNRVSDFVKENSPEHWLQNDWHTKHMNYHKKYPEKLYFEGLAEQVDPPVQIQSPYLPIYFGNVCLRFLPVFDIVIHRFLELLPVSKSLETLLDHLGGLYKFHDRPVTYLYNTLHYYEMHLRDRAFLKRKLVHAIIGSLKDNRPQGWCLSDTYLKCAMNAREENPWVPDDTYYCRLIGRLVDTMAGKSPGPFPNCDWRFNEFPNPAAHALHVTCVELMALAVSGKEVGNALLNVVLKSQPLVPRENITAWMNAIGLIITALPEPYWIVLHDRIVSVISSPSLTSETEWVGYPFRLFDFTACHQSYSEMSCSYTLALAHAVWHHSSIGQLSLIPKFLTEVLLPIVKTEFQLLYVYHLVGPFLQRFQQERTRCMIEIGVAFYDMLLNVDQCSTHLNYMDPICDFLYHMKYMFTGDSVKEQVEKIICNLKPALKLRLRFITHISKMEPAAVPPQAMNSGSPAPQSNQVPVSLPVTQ
The thermal stability z-score of the first is higher: 0.547 for the first, -0.274 for the second.

First: CARHSP1 (UniProt Q9Y2V2)
Chain of UniProt Q9Y2V2 (Q9Y2V2 whole entry): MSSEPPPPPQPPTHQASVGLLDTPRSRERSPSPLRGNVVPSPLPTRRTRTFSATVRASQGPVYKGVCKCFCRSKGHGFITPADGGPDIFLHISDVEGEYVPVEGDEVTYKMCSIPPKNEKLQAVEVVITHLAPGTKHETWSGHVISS
Second: GLRX3 (UniProt O76003)
The thermal stability z-score of the first is lower: -5.57 for the first, 0.88 for the second.

First: CGGBP1 (UniProt Q9UFW8)
Chain of UniProt Q9UFW8 (Q9UFW8 whole entry): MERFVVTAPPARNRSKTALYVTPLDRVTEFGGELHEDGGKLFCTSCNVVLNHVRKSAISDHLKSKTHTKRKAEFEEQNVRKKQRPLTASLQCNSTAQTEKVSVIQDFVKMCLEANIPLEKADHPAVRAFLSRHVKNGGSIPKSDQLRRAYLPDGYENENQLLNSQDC
Second: SMC2 (UniProt O95347)
The thermal stability z-score of the first is lower: -0.0749 for the first, 0.802 for the second.

Going from C1ORF122 (UniProt Q6ZSJ8) to ATXN2L (UniProt Q8WWM7), the thermal stability z-score falls from 0.28 to -0.118.

Compared with DTWD1 (UniProt Q8N5C7), CHM (UniProt P24386) is higher in thermal stability z-score: -0.742 for the first, -0.22 for the second.

First: JADE3 (UniProt Q92613)
Second: PRKD2 (UniProt Q9BZL6)
The thermal stability z-score of the first is lower: -0.474 for the first, -0.232 for the second.

First: PANK4 (UniProt Q9NVE7)
Second: PDE4D (UniProt Q08499)
The thermal stability z-score of the first is higher: 0.112 for the first, 0.101 for the second.

First: SET (UniProt Q01105)
Second: CBLB (UniProt Q13191)
The thermal stability z-score of the first is lower: -0.503 for the first, -0.0258 for the second.

First: SDHA (UniProt P31040)
Second: RPS23 (UniProt P62266)
The thermal stability z-score of the first is lower: -1.17 for the first, -0.0437 for the second.

Compared with NDUFAF3 (UniProt Q9BU61), SERPINI1 (UniProt Q99574) is higher in thermal stability z-score: -0.147 for the first, 0.709 for the second.

First: C8ORF37 (UniProt Q96NL8)
Second: CCDC124 (UniProt Q96CT7)
The thermal stability z-score of the first is higher: 0.161 for the first, -0.605 for the second.

Compared with TFAP4 (UniProt Q01664), NUS1 (UniProt Q96E22) is lower in thermal stability z-score: 1.02 for the first, 0.015 for the second.

First: UAP1 (UniProt Q16222)
Second: JUNB (UniProt P17275)
The thermal stability z-score of the first is higher: -0.553 for the first, -1.55 for the second.

Going from UBE2J2 (UniProt Q8N2K1) to MUT (UniProt P22033), the thermal stability z-score falls from -0.0347 to -1.02.

Compared with MARCKSL1 (UniProt P49006), RNF167 (UniProt Q9H6Y7) is higher in thermal stability z-score: 0.248 for the first, 0.669 for the second.

First: FAM213A (UniProt Q9BRX8)
Second: TUBGCP6 (UniProt Q96RT7)
The thermal stability z-score of the first is lower: -0.29 for the first, 0.0497 for the second.

Compared with FOSL1 (UniProt P15407), FAM177A1 (UniProt Q8N128) is higher in thermal stability z-score: -0.444 for the first, 1.04 for the second.

Compared with FAM103A1 (UniProt Q9BTL3), ROBO1 (UniProt Q9Y6N7) is lower in thermal stability z-score: -0.0441 for the first, -0.29 for the second.

Going from SLFN5 (UniProt Q08AF3) to ZNF281 (UniProt Q9Y2X9), the thermal stability z-score rises from -0.568 to 0.133.

Going from HK2 (UniProt P52789) to SRSF4 (UniProt Q08170), the thermal stability z-score falls from 0.715 to -0.0178.

Compared with PANK2 (UniProt Q9BZ23), DOCK11 (UniProt Q5JSL3) is lower in thermal stability z-score: 0.53 for the first, -0.755 for the second.

Going from NGRN (UniProt Q9NPE2) to SDAD1 (UniProt Q9NVU7), the thermal stability z-score falls from -0.378 to -0.469.

Going from SIRT1 (UniProt Q96EB6) to TMX2 (UniProt Q9Y320), the thermal stability z-score falls from -0.922 to -1.96.

First: CSDE1 (UniProt O75534)
Second: ESYT1 (UniProt Q9BSJ8)
The thermal stability z-score of the first is lower: -0.273 for the first, 0.595 for the second.

Going from RFC4 (UniProt P35249) to AGRN (UniProt O00468), the thermal stability z-score falls from 0.802 to 0.582.

With AHNAK (UniProt Q09666) the thermal stability z-score was 2.03.

These targets were tested with NC(=O)CCCCC1CCSS1 [lipoamide] in the same assay as above. Settings: HeLa; lipoamide concentration 100 µM; arsenate co-treatment: 1 mM arsenate 1 h.
Procedure: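 Cellular thermal proteome profiling in HeLa cells. Cells were treated with 100 µM lipoamide for 1 h, with or without 1 mM arsenate for a further 1 h, then heated to ten temperatures (37-66.3 °C), and soluble protein was quantified by TMT mass spectrometry relative to 0.1% DMSO controls. The thermal stability score (sum of log2 fold changes minus the abundance score) was transformed to a z-score; mean of n = 3 experiments.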

Going from RPP30 (UniProt P78346) to UBASH3B (UniProt Q8TF42), the thermal stability z-score rises from -0.9 to -0.0394.

First: ATRAID (UniProt Q6UW56)
Second: INF2 (UniProt Q27J81)
The thermal stability z-score of the first is lower: -2.95 for the first, -0.674 for the second.

Compared with SUZ12 (UniProt Q15022), PCYT2 (UniProt Q99447) is higher in thermal stability z-score: -0.0278 for the first, 0.0344 for the second.

Compared with ACO2 (UniProt Q99798), FBXO7 (UniProt Q9Y3I1) is lower in thermal stability z-score: -0.488 for the first, -0.692 for the second.

First: RPL22L1 (UniProt Q6P5R6)
Second: PDLIM5 (UniProt Q96HC4)
The thermal stability z-score of the first is higher: -0.147 for the first, -0.252 for the second.

Compared with SLC33A1 (UniProt O00400), UBE2K (UniProt P61086) is lower in thermal stability z-score: 0.69 for the first, 0.398 for the second.

Compared with FAM195A (UniProt Q9BUT9), DNAJC21 (UniProt Q5F1R6) is lower in thermal stability z-score: 0.00727 for the first, -0.615 for the second.

Going from LASP1 (UniProt Q14847) to EIF1AX (UniProt P47813), the thermal stability z-score falls from 0.387 to -0.268.

Going from WDR89 (UniProt Q96FK6) to BLOC1S2 (UniProt Q6QNY1), the thermal stability z-score rises from 2.45 to 2.75.

Compared with WDR45 (UniProt Q9Y484), ACP1 (UniProt P24666) is lower in thermal stability z-score: -0.0374 for the first, -0.147 for the second.

Going from SPNS1 (UniProt Q9H2V7) to MED23 (UniProt Q9ULK4), the thermal stability z-score rises from -0.826 to -0.0582.

First: CARHSP1 (UniProt Q9Y2V2)
Second: GLRX3 (UniProt O76003)
The thermal stability z-score of the first is lower: 0.147 for the first, 0.153 for the second.

Compared with CGGBP1 (UniProt Q9UFW8), SMC2 (UniProt O95347) is higher in thermal stability z-score: -0.266 for the first, 0.528 for the second.

Going from C1ORF122 (UniProt Q6ZSJ8) to ATXN2L (UniProt Q8WWM7), the thermal stability z-score falls from 1.07 to 0.44.

Going from DTWD1 (UniProt Q8N5C7) to CHM (UniProt P24386), the thermal stability z-score rises from -0.492 to 0.191.

Compared with JADE3 (UniProt Q92613), PRKD2 (UniProt Q9BZL6) is higher in thermal stability z-score: -0.12 for the first, -0.0965 for the second.

Going from PANK4 (UniProt Q9NVE7) to PDE4D (UniProt Q08499), the thermal stability z-score rises from -0.399 to 0.651.

SET (UniProt Q01105) gave a thermal stability z-score of 0.154.
